The values that follow come from PMC4176650 (BioMed Research International, 2014).

Data set [1] deals with Lemna aequinoctialis Welv. Description: Lemna phytotoxicity assay. The settings on record: seven days. The procedure:
The assay was performed according to the modified protocol of Bremner. […] Sterilized conical flasks were inoculated with compounds with desired concentrations prepared from the stock solution and allowed to evaporate overnight. Each flask was inoculated with 20 mL of sterilized E-medium and ten Lemna aequinoctialis Welv. each containing a rosette of three fronds. Other flasks were supplemented with methanol serving as negative control and reference inhibitor, that is, phosphoroamide (a urease inhibitor already in commercial use) serving as positive control. The treatments were replicated three times and the flasks incubated at 30°C Fisons Fi-Totron 600 H growth cabinet for seven days, 9000 lux light intensity, 56 ± 10 rh (relative humidity), and 12 h day length. Growth of Lemna aequinocitalis in compound containing flask was determined by counting the number of fronds per dose and growth inhibition calculated with reference to negative control.

A short description of data set [2]: Viability of human neutrophils (WST-1). Type of data set: cell-based. The settings on record: isolated human neutrophils; human neutrophils 1 × 10^7 cells/mL; conc. 200 µg/mL. How it is done:
Heparinized fresh venous blood was drawn from healthy volunteers in a local blood bank and the neutrophils were isolated by developed method of McLaughlin et al.. 45 The whole blood was mixed with Ficoll-Paque (Pharmacia Biotech Amersham, Uppsala). After sedimentation the unwanted red blood cells (RBCs) were layered as a buffy coat on the cushion of Ficoll (3.0 mL). It was then centrifuged for 30 min. at 1500 rpm, and supernatant was discarded. Further treated with hypotonic ammonium chloride solution (0.83%) to lyse RBCs. The preparation was then centrifuged and the neutrophils were washed with Modified Hank's Solution (MHS) and resuspended at a concentration of 1 × 10^7 cells/mL.
Isolated human neutrophils (1 × 10^7 cells/mL) were incubated first with test compounds for 30 min., and then after the addition of 0.25 mM WST-1 (Dojindo Laboratories Kumamoto, Japan) in water bath shaker at 37°C [18, 19]. After 3 hrs incubation, change in the absorbance was measured at 450 nm in 96-well plate by using microplate reader Spectra MAX 340 (Molecular Devices, CA, USA). The OD is the mean of the five experimental replicates. The percentage (%) cell viability was calculated by using the following formula: (1) Percentage (%) viability of cells =[…].
Background: Tetrazolium assays rely on reduction of a dye to a coloured formazan, in cell work by metabolically active cells.

For data set [3], the target named is Bacillus pasteurii urease (Sporosarcina pasteurii, UniProt P41020). Description: Urease assay and inhibition kinetics, Bacillus pasteurii urease. Type of data set: biochemical. Further details: Vmaxapp: unit not given here. The settings on record: for Kmapp: Km without inhibitor 5.1 mM; for Vmaxapp: Vmax without inhibitor 160. How it is done: (§1) Reaction mixtures comprising 25 μL of enzyme (Jack bean and Bacillus pasteurii ureases) solution and 55 μL of buffers containing urea (2–24 mM for jack bean and Bacillus pasteurii ureases) were incubated with 5 μL of test compounds at 30°C for 4.15 min in 96-well plates. The increasing absorbance at 560 nm was measured after 10 min, using a microplate reader (Molecular Devices, USA). All reactions were performed in triplicate in a final volume of […]. The results (change in absorbance per min.) were processed by using SoftMax Pro software (Molecular Devices, USA). All the assays were performed at pH 6.8 (3 mM sodium phosphate buffer) and 7 μg of phenol red per mL as indicator [10]. Percentage inhibitions were calculated from the formula 100 − (ODtestwell/ODcontrol) × 100. Thiourea was used as the standard inhibitor of urease.
Chain of Bacillus pasteurii urease (P41021 whole entry): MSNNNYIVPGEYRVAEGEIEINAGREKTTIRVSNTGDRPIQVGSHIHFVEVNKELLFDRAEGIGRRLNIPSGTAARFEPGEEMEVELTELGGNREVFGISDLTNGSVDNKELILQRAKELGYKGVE
Chain of Bacillus pasteurii urease (P41022 whole entry, further chain): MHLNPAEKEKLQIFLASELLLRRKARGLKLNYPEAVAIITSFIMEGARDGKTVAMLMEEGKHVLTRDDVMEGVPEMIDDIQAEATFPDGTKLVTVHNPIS
Chain of Bacillus pasteurii urease (P41020 whole entry): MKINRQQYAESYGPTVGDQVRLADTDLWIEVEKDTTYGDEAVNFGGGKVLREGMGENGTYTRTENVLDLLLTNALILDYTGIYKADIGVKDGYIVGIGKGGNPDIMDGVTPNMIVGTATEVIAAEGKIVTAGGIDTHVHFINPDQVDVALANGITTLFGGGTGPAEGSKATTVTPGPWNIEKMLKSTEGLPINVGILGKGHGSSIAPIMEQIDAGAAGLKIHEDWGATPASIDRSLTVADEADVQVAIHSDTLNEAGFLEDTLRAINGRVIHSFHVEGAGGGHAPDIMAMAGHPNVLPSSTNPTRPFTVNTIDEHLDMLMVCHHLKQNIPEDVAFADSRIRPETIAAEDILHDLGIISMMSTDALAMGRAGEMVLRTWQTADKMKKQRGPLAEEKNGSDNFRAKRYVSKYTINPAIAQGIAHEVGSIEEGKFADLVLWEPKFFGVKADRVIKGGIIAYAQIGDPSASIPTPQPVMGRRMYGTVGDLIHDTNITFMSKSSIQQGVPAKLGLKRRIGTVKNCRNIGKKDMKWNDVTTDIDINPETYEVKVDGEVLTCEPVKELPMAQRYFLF
(§2) The concentration of tested compounds that inhibited the hydrolysis of substrates (Jack bean urease and Bacillus pasteurii ureases) by 50% (IC50) was determined by monitoring the effect of various concentrations of the compounds in the assays on the inhibition values. The IC50 (inhibitor conc. that inhibits 50% activity of both enzymes) values were then calculated using the EZ-Fit Enzyme Kinetics program (Perrella Scientific Inc., Amherst, USA).
(§3) Dissociation constant/inhibition constant (K i) were determined by the interpretation of Dixon plot. Lineweaver-Burk plot and their secondary replots using initial velocities obtained over a substrate concentration range between 2.0 and 24 mM urea for J.B. and B.P. ureases, respectively. Nonlinear regression equations were used to determine the values of K I, K m, and V max in the Lineweaver-Burk plot and Dixon plots. The K i values dissociation constant/inhibition constant of J.B. urease-inhibitor or B.P. urease-inhibitor complex into free J.B. urease or B.P. urease and inhibitor was determined graphically by Dixon plot and Lineweaver-Burk plots.

For the next data set, the target named is Jack bean urease (Canavalia ensiformis, UniProt P07374). Description: biochemical. The settings on record: for Type of inhibition / Kmapp / Vmaxapp: Urease (JB); for Kmapp: Km without inhibitor 2.5 mM; for Vmaxapp: Vmax without inhibitor 105. The procedure: as §1, §2, §3
Chain of Jack bean urease (P07374 whole entry, looked up): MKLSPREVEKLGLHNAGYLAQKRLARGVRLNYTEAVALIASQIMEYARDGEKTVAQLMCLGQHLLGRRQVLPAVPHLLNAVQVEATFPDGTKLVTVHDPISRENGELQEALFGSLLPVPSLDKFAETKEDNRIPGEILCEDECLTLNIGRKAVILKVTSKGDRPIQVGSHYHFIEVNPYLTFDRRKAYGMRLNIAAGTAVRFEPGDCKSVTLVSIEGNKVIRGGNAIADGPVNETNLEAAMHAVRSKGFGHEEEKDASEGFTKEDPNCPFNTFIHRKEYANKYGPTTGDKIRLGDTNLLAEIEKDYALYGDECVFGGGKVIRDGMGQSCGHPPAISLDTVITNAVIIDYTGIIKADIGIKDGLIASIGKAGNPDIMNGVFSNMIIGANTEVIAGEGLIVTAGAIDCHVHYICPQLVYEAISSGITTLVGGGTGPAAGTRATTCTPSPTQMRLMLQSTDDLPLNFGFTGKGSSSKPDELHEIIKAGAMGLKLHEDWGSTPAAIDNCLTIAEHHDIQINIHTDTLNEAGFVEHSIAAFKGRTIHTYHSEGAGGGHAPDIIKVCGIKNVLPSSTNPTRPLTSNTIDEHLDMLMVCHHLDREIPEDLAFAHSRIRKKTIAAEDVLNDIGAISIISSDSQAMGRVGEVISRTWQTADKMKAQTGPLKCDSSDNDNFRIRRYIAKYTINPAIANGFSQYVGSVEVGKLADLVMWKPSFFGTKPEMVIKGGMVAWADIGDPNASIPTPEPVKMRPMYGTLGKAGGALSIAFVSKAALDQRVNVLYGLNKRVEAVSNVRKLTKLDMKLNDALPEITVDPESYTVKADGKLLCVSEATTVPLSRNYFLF
Where [4] appears, read: Urease (BP), Dixon plot and secondary Lineweaver-Burk plot, pH 6.8, 30°C, read-out: Ki (µM) ± SEM.

“Also recorded” adds a separate entry of the source. Read-outs that look alike come from different tables or passages of the source.

As usually defined, the viability is a read-out of living cells in per cent, often relative to untreated cells. One may read the Ki as a dissociation constant, usually derived from enzyme kinetics or from competition with a known ligand. For the compound `COc1cccc(C(c2c(O)c3ccccc3oc2=O)c2c(O)c3ccccc3oc2=O)c1` [compound 1], the “Lemna Welv. phytotoxicity (growth inhibition)” value in data set [1] (conc. of compound 10 μg/mL) is on record as 9.9; in data set [1] (conc. of compound 100 μg/mL), 60.3; in data set [1] (conc. of compound 1000 μg/mL), 80. In data set [2], this compound showed a viability at 200 µg/mL of 67.5 ± 3.1%. Also, the values for the Type of inhibition entry (in data set [3] (Urease (BP)); at Jack bean urease) were “competitively; also recorded: Competitive” and “Competitive”, respectively. The inhibitory constant (Ki) in data set [3] (setting [4]) stood at 15.5 ± 0.2 µM; at Jack bean urease, 19.3 ± 0.1 µM. Also, the results for the “Kmapp” value (in data set [3] (Urease (BP)); at Jack bean urease) were 11.3 mM and 5.6 mM, respectively. The results for the Vmaxapp (in data set [3] (Urease (BP)); on Jack bean urease) were 159.3 and 109, respectively.
As to `CCCCC(c1c(O)c2ccccc2oc1=O)c1c(O)c2ccccc2oc1=O` [compound 6], the “Lemna Welv. phytotoxicity (growth inhibition)” value in data set [1] (conc. of compound 10 μg/mL) came out at 10.60; in data set [1] (conc. of compound 100 μg/mL), 42.50; in data set [1] (conc. of compound 1000 μg/mL) it was 69.6. The viability at 200 µg/mL in data set [2] came out at 45.5 ± 4%. The Type of inhibition result in data set [3] (Urease (BP)) was “competitively; also recorded: Competitive”; at Jack bean urease, “Competitive”. The inhibition constant (Ki) in data set [3] (setting [4]) is 27.5 µM; at Jack bean urease, 75 ± 0.1 µM. The “Kmapp” value in data set [3] (Urease (BP)) was found to be 13.0 mM; at Jack bean urease, 9.5 mM. In addition, the Vmaxapp in data set [3] (Urease (BP)) came out at 159.2; at Jack bean urease it was 106.
Consider `O=c1oc2ccccc2c(O)c1C(c1ccncc1)c1c(O)c2ccccc2oc1=O` [compound 2], for which the “Lemna Welv. phytotoxicity (growth inhibition)” value in data set [1] (conc. of compound 10 μg/mL) worked out at 6.5; in data set [1] (conc. of compound 100 μg/mL), 33; in data set [1] (conc. of compound 1000 μg/mL), 52.7. Further, in data set [2], the viability at 200 µg/mL was found to be 85.1 ± 2.5%. In addition, the values for the Type of inhibition result (in data set [3] (Urease (BP)); on Jack bean urease) were “Noncompetitive” and “Competitive”, respectively. Also, the inhibition constant Ki was 51.3 ± 0.4 µM in data set [3] (setting [4]) and 71 ± 0.3 µM on Jack bean urease. The “Kmapp” value in data set [3] (Urease (BP)) is given as 5.2 mM; at Jack bean urease, 7.7 mM. Further, the Vmaxapp in data set [3] (Urease (BP)) stood at 98.0; on Jack bean urease it was 106.
Turning to `O=c1oc2ccccc2c(O)c1C(c1c(O)c2ccccc2oc1=O)c1c[nH]c2ccccc12` [compound 9], the “Lemna Welv. phytotoxicity (growth inhibition)” value in data set [1] (conc. of compound 10 μg/mL) was 41.66. For the same compound, in data set [1] (conc. of compound 100 μg/mL), the “Lemna Welv. phytotoxicity (growth inhibition)” value is listed as 50.00. This compound displayed a viability at 200 µg/mL in data set [2] of 100 ± 5.2%. In addition, in data set [3] (Urease (BP)), the Type of inhibition result is reported as “Uncompetitive”, the “Kmapp” value amounted to 3.2 mM and the Vmaxapp is 97.2. Further, the inhibition constant (Ki) in data set [3] (setting [4]) was 59.5 ± 0.2 µM. In addition, on Jack bean urease, the inhibitory constant (Ki) was 62.9 ± 0.5 µM, the Type of inhibition entry was “Competitive”, the “Kmapp” value came to 11.6 mM and the Vmaxapp was 108.
Consider `O=c1oc2ccccc2c(O)c1C(/C=C/c1ccccc1)c1c(O)c2ccccc2oc1=O` [compound 8], for which the results for the “Lemna Welv. phytotoxicity (growth inhibition)” value in data set [1] (conc. of compound 10 μg/mL), in data set [1] (conc. of compound 100 μg/mL) and in data set [1] (conc. of compound 1000 μg/mL) were 13.00, 22.99 and 70.0, respectively. In addition, the viability at 200 µg/mL in data set [2] was 100 ± 5.2%. Besides, the Type of inhibition entry is “competitively; also recorded: Competitive” in data set [3] (Urease (BP)) and “Competitive” at Jack bean urease. The values for the Ki (in data set [3] (setting [4]); at Jack bean urease) were 19 ± 0.1 µM and 21.5 µM, respectively. In addition, the “Kmapp” value came out at 7.7 mM in data set [3] (Urease (BP)) and 7.5 mM on Jack bean urease. The results for the Vmaxapp (in data set [3] (Urease (BP)); on Jack bean urease) were 161.7 and 104, respectively.
As to `C/C=C/C(c1c(O)c2ccccc2oc1=O)c1c(O)c2ccccc2oc1=O` [compound 4], the “Lemna Welv. phytotoxicity (growth inhibition)” value in data set [1] (conc. of compound 10 μg/mL) is on record as 38.23. For the same compound, the “Lemna Welv. phytotoxicity (growth inhibition)” value in data set [1] (conc. of compound 100 μg/mL) stood at 100. Besides, in data set [2], the viability at 200 µg/mL was 13.2 ± 4.2%. Moreover, in data set [3] (Urease (BP)), the Type of inhibition result is “Uncompetitive”, the “Kmapp” value was 3.8 mM and the Vmaxapp amounted to 101.0. In data set [3] (setting [4]), the Ki came out at 48.3 ± 0.01 µM. At Jack bean urease, the Ki was found to be 65.9 µM, the Type of inhibition result is given as “Competitive”, the “Kmapp” value was found to be 9.1 mM and the Vmaxapp came to 105.
`CC(c1c(O)c2ccccc2oc1=O)c1c(O)c2ccccc2oc1=O` [compound 3]: the “Lemna Welv. phytotoxicity (growth inhibition)” value stood at 6.4 in data set [1] (conc. of compound 10 μg/mL), 22.5 in data set [1] (conc. of compound 100 μg/mL) and 54.8 in data set [1] (conc. of compound 1000 μg/mL). This compound displayed a viability at 200 µg/mL in data set [2] of 100 ± 1%. For the same compound, the Type of inhibition entry in data set [3] (Urease (BP)) is “Uncompetitive”; on Jack bean urease, “Competitive”. Besides, the inhibition constant (Ki) turned out to be 53 ± 0.01 µM in data set [3] (setting [4]) and 59.4 ± 0.1 µM at Jack bean urease. Also, the “Kmapp” value in data set [3] (Urease (BP)) amounted to 4.0 mM; on Jack bean urease, 8.3 mM. Also, the Vmaxapp in data set [3] (Urease (BP)) was found to be 115.3; at Jack bean urease, 108.
For `O=c1oc2ccccc2c(O)c1C(c1cc[nH]c1)c1c(O)c2ccccc2oc1=O` [compound 5], the “Lemna Welv. phytotoxicity (growth inhibition)” value in data set [1] (conc. of compound 10 μg/mL) worked out at 9.00; in data set [1] (conc. of compound 100 μg/mL), 25.00; in data set [1] (conc. of compound 1000 μg/mL) it was 61.4. This compound also had a viability at 200 µg/mL in data set [2] of 100 ± 0.5%. In addition, the Type of inhibition result in data set [3] (Urease (BP)) was “Uncompetitive”; on Jack bean urease, “Competitive”. The Ki in data set [3] (setting [4]) is 68.1 ± 0.3 µM; on Jack bean urease, 53.3 ± 0.4 µM. Further, the entries for the “Kmapp” value (in data set [3] (Urease (BP)); on Jack bean urease) were 3.9 mM and 7.8 mM, respectively. The Vmaxapp came to 93.7 in data set [3] (Urease (BP)) and 103 on Jack bean urease. Further, the “selectivity between B.P. urease and J.B. urease” value in data set [3] (comparison of potency against both ureases) is reported as “selective for J.B. uraese”.
In data set [2], `O=c1oc2ccccc2c(O)c1Cc1c(O)c2ccccc2oc1=O` [compound 7] had a viability at 200 µg/mL of 100 ± 4.3%. In data set [3], this compound displayed an inhibition constant Ki of 13.3 ± 0.2 µM. In addition, in data set [3] (Urease (BP)), the Type of inhibition entry is “competitively; also recorded: Competitive”, the “Kmapp” value is on record as 9.9 mM and the Vmaxapp was 162.5. In addition, on Jack bean urease, affinity was put at a Ki of 15 ± 0.1 µM, the Type of inhibition entry is recorded as “Competitive”, the “Kmapp” value is listed as 7.6 mM and the Vmaxapp turned out to be 102.
Consider `O=c1oc2ccccc2c(O)c1C(c1cccnc1)c1c(O)c2ccccc2oc1=O` [compound 10], for which the “Lemna Welv. phytotoxicity (growth inhibition)” value in data set [1] (conc. of compound 10 μg/mL) stood at 23.8; in data set [1] (conc. of compound 100 μg/mL) it was 47.6; in data set [1] (conc. of compound 1000 μg/mL), 57.14. The same compound registered a viability at 200 µg/mL in data set [2] of 95.4 ± 5.2%. In addition, the Type of inhibition entry in data set [3] (Urease (BP)) is given as “competitively”; on Jack bean urease, “Competitive”. Further, the inhibition constant (Ki) is 63.6 ± 0.2 µM in data set [3] (setting [4]) and 68 ± 0.1 µM at Jack bean urease. The “Kmapp” value amounted to 10.3 mM in data set [3] (Urease (BP)) and 10.6 mM on Jack bean urease. The Vmaxapp on Jack bean urease worked out at 105.
